The values that follow come from US8735588B2, “Nematocidal sulfonamides” (E I Du Pont De Nemours and Company, priority 2009, dated 2014).

A word on the melting point: it is the temperature, or range, at which the solid turns liquid.

Structures are written as SMILES. Where only a bound is given, the exact number is not on record here.

For the molecule `Cc1cc(S(=O)(=O)NC(=O)c2cn3cc(C(F)(F)F)cc(Cl)c3n2)c(C)cc1C#N` [Compound 19, 8-chloro-N-[(4-cyano-2,5-dimethylphenyl)sulfonyl]-6-(trifluoromethyl)imidazo[1,2-a]pyridine-2-carboxamide], the melting point lay in the range of 244 to 245 °C. Then `CCc1ccc(Cl)c(S(=O)(=O)NC(=O)c2cn3cc(C(F)(F)F)cc(Cl)c3n2)c1` [Compound 356, 8-chloro-N-[(2-chloro-5-ethylphenyl)sulfonyl]-6-(trifluoromethyl)imidazo[1,2-a]pyridine-2-carboxamide], with over 250 °C. Then `CCn1cc(S(=O)(=O)NC(=O)c2cn3cc(C(F)(F)F)cc(Cl)c3n2)c(C)n1` [Compound 357, 8-chloro-N-[(1-ethyl-3-methyl-1H-pyrazol-4-yl)sulfonyl]-6-(trifluoromethyl)-imidazo[1,2-a]pyridine-2-carboxamide], with 251 to 252 °C; and `Cc1cc(S(=O)(=O)[N-]C(=O)c2cn3cc(C(F)(F)F)cc(Cl)c3n2)c(C)cc1C#N.[Na+]` [Compound 477], with over 250 °C. In the case of `COc1ccc(Cl)c(S(=O)(=O)[N-]C(=O)c2cn3cc(C(F)(F)F)cc(Cl)c3n2)c1.[Na+]` [Compound 478], the melting point was over 250 °C. Then `Cc1cc(S(=O)(=O)NC(=O)c2cn3cc(C(F)(F)F)cc(Cl)c3n2)c(C)cc1C#N` [Compound 479], with 185 to 186 °C.
